Experimental findings from patent publication US20090258951A1, “Use of vanillyl alcohol for the treatment of Parkinson's disease” (Red Pharma & Biotech Research Corporation, priority 2008, published 2009) are described below.

For test [1], the system named is rat with right-side substantia nigra destroyed by 6-OHDA (6-hydroxydopamine). The test is described as follows: Amphetamine-induced rotation of rat with substantia nigra destroyed by 6-OHDA (animal gyroscope). It is filed as in vivo. On the procedure:
(§1) After affixing rear head of a rat with a three-dimensional tightener and anaesthetizing the rat, then inject substantia nigra located at the right side of brain of the rat with 6-OHDA (6-hydroxydopamine) to destroy substantia nigra to make the rat produce tremor, rigidity, bradykinesia etc. Next, after the rat returns to and stays in room for 2 weeks, it is given amphetamine (5 mg/1000 g) via belly injection and then starts rotating round an animal gyroscope, wherein the number of rotations will be recorded (if the number of rotations exceeds 300 rotations per an hour, it means that the amphetamine has effected on the rat).
The substantia nigra of the brain of the rat is a tissue to release dopamine so that the injected amphetamine may accelerate the substantia nigra to release a large amount of dopamine. However, the substantia nigra located at the right side of brain of the rat has been destroyed by the 6-OHDA (6-hydroxydopamine) already unable to release dopamine any more, although the rat is injected with amphetamine for stimulation but the left side of body movement which is controlled by the right side of brain remains rigidity and bradykinesia. On the other hand, the substantia nigra located at the left side of brain of the rat is in normal condition without any injury so hyperkinesia occurs on the right side of body movement which is controlled by the left side of brain due to acceleration of amphetamine, that's why the rat keeps rotating for right turn (clockwise) and even uncontrollably.
With reference to FIG. 4, the rat is given with amphetamine about 1 mg per 1 kg of body weight thereof via belly injection and rotates round an animal gyroscope on 28th, 36th, 43rd and 52nd day respectively for right turn (clockwise) and left turn (counterclockwise), in which the number of rotations will be recorded.
With reference to FIG. 5, the rat is given with amphetamine about 1 mg per 1 kg of body weight thereof via belly injection and further provided with Vanillyl alcohol about 30 mg. Next, the rat rotates round an animal gyroscope on 28th, 36th, 43rd and 52nd day respectively for right turn (clockwise) and left turn (counterclockwise), in which the number of rotations will be recorded.

Test [2] shares this test system. The test is classed as in vivo. On the procedure: as §1
The substantia nigra of the brain of the rat is a tissue to release dopamine so that the injected amphetamine may accelerate the substantia nigra to release a large amount of dopamine. […]
With reference to FIG. 7, the rat is given with L-DOPA about 50 mg per 1 kg of body weight thereof via belly injection and further provided with Vanillyl alcohol about 30 mg. […] Next, the rat rotates round an animal gyroscope on 28th, 36th, and 52nd day respectively for right turn (clockwise) and left turn (counterclockwise), in which the number of rotations will be recorded.

For the compound `COc1cc(CO)ccc1O` [Vanillyl alcohol, 4-hydroxy-3-methoxy-benzyl alcohol], the “number of rotations for right turn (clockwise)” value in test [1] (amphetamine about 1 mg per 1 kg via belly injection plus Vanillyl alcohol about 30 mg, days 28, 36, 43, 52, effect since 43rd day, 52nd day most apparent (FIG. 5)) is “decreased gradually”. Moreover, in test [1] (amphetamine about 1 mg per 1 kg via belly injection plus Vanillyl alcohol about 30 mg, effect since 43rd day, 52nd day most apparent (FIG. 5)), the “behavioral asymmetry between right side and left side” value was “decreased apparently”. In addition, in test [2] (L-DOPA about 50 mg per 1 kg via belly injection plus Vanillyl alcohol about 30 mg, benserazide 30 mg per 1 kg 30 minutes before, days 28, 36, 52 (FIG. 7)), the “movements of the rat” value is reported as “almost normal”. The “behavioral unbalance between right and left sides induced by L-DOPA” value in test [2] (Vanillyl alcohol about 30 mg in combination with L-DOPA about 50 mg per 1 kg, benserazide pre-treatment (FIG. 7)) is reported as “inhibit”.

Turning to `CC(N)Cc1ccccc1` (stereo not drawn) [amphetamine, reference compound], in test [1] (amphetamine about 1 mg per 1 kg via belly injection alone, days 28, 36, 43, 52, symptom since 36th day (FIG. 4)), the “number of rotations for left turn (counterclockwise)” value is recorded as “decreased gradually”. In addition, the “behavioral asymmetry between right side and left side” value in test [1] (amphetamine about 1 mg per 1 kg via belly injection alone, symptom since 36th day (FIG. 4)) is on record as “increased apparently”.
